Experimental data: patent US6623931B2, “Diagnostic assay for antibiotic tolerance” (priority 2001, dated 2003)

Columns and labels:
Assay type in all cases: cell-based
[1] = test system: Streptococcus pneumoniae; assay: oxacillin disc sensitivity test; conditions: tolerant clinical isolates
Procedure: (§1) Characteristics of Tolerant Isolates. The MIC's of the tolerant isolates ranged from 0.1 ug/ml to 0.3 ug/ml vancomycin and all were resistant to penicillin as evidenced by an oxacillin disc sensitivity test. Tolerance was not correlated with serotype. Frequently, tolerant strains were isolated days to weeks after non-tolerant strains in the same child indicating tolerance could arise during carriage in the nasopharynx. Clonal relatedness between the non-tolerant and tolerant strains isolated sequentially from the same child was assessed by pulse-field gel electrophoresis (PFGE) patterns of SmaI digested genomic DNA. […] Thus, tolerant and non-tolerant strains could be paired for comparison. PFGE indicated a possible serotype switch in one child (Child C), while another child (Child E) was colonized by two separate, yet closely related, tolerant strains.

[2] = test system: Streptococcus pneumoniae; assay: lysis by 1% deoxycholate (activation of functional LytA); conditions: all tolerant isolates
Excerpt: Identification of the Mechanism Contributing to Tolerance. […] Furthermore, all tolerant isolates were lysed by 1% deoxycholate—a detergent that specifically activates functional LytA causing lysis of the bacteria. This eliminated mechanisms of tolerance in the clinical strains that arise from lack of enzyme or loss of amidase activity. Attention thus focused on the only reported mechanism where normal amidase is present: mutation of the vncR/S locus, encoding a two-component sensor regulator system. Western blot analysis confirmed the presence of VncS and VncR in the tolerant clinical isolates.

[3] = test system: Streptococcus pneumoniae; assay: reversal of tolerance by exogenous synthetic Pep27 added with vancomycin; conditions: tolerant clinical strains, vancomycin 10×MIC in the absence of peptide
Procedure: Pep27 Transport by Vex. In laboratory strains, tolerance has been created by loss of function mutations in the death signal Pep27 or its transporter Vex, the loci contiguous with vncS/R. Tolerance in these cases was attributed to lack of Pep27 or lack of Pep27 export into the supernatant. To assess Pep27 in the supernatant, immunoprecipitations were performed using Pep27 antibody. […] Therefore, extracellular transport of the peptide may be defective in tolerant strains leading to the loss of signal for death through VncS. If so, tolerance should be reversed through the addition of exogenous Pep27 to the culture. To test this, tolerant clinical strains were treated with vancomycin at 10×MIC as before but 0.5 mM synthetic Pep27 was added in conjunction with the antibiotic.

[4] = test system: Streptococcus pneumoniae; assay: viability assay after exposure to vancomycin
Excerpt: To confirm tolerance, the 27 non-lytic strains were subjected to viability assays. […] This is within ±2 standard deviations (SD) of the killing rate for the tolerant Lyt4-4 strain.

[5] = test system: Streptococcus pneumoniae; assay: MIC of tolerant isolates; conditions: tolerant clinical isolates
Procedure: as §1

[6] = test system: Streptococcus pneumoniae; assay: lysis after exposure to 10×MIC vancomycin (optical density of the culture)
Procedure: Prevalence of vancomycin tolerance in clinical isolates. To determine the prevalence of vancomycin tolerance in Streptococcus pneumoniae in a population of healthy children, 215 nasopharygeal isolates from Vanderbilt University Hospital were screened for lysis after exposure to 10×MIC (minimum inhibitory concentration) vancomycin (5 ug/ml).

Compound: penicillin
- penicillin susceptibility [1]: resistant

Compound: deoxycholate
- lysis of the bacteria [2]: lysed

Compound: CN[C@H](CC(C)C)C(=O)N[C@H]1C(=O)N[C@@H](CC(N)=O)C(=O)N[C@H]2C(=O)N[C@H]3C(=O)N[C@H](C(=O)N[C@H](C(=O)O)c4cc(O)cc(O)c4-c4cc3ccc4O)[C@H](O)c3ccc(c(Cl)c3)Oc3cc2cc(c3O[C@@H]2O[C@H](CO)[C@@H](O)[C@H](O)[C@H]2O[C@H]2C[C@](C)(N)[C@H](O)[C@H](C)O2)Oc2ccc(cc2Cl)[C@H]1O [vancomycin]
- viability diminished [3]: 2 logs
- log kill ([4]; R6 strain, after 4 hours of exposure to vancomycin): 5 log
- log killing ([4]; eight tolerant clinical isolates, after 4 hours of exposure to vancomycin): < 3 log
- viability after antibiotic exposure ([4]; remaining 19 non-lytic isolates): dead after antibiotic exposure
- MIC [5]: 0.1 to 0.3 µg/mL
- optical density of the culture ([6]; 27 of 215 nasopharyngeal isolates that failed to lyse, after 4 hours, 10×MIC vancomycin (5 ug/ml)): above 0.15
- OD620nm ([6]; control R6 strain, after 2 hours @ 10×MIC of vancomycin): 0.02
